Test results: patent US20250163045A1, “COMPOUNDS FOR TREATMENT OF HAIR LOSS” (Pelage Pharmaceuticals, Inc., priority 2021, published 2025)

Assay: Solubility of compounds in topical formulations (stirred, visual dissolution)
Assay type: physicochemical
Settings: for Solubility in Non-Aqueous Formulation: Non-Aqueous Formulation (50% PEG400, 15% Transcutol P, 25% ethanol, 10% DMSO)
Text: Several formulations were used to evaluate the solubility of the various compounds. Although any suitable pharmaceutical formulation may be used for the compounds, formulations such as those described below are suitable for administration of the compounds to the hair or scalp of a mammal such as a human being. The formulation may be sterilized before applying to a mammal such as a human being. • A Non-Aqueous Formulation, containing 50% PEG400, 15% Transcutol® P, 25% ethanol, and 10% DMSO was manufactured using the following general process: 10 g of PEG400, 3 g of Transcutol® P, 5 g of ethanol, and 2 g of DMSO were added to a clear vial. The mixture was then stirred using a stir bar until homogenous. • Aqueous Formulation 1, containing 10% PEG400, 20% Transcutol® HP, 45% ethanol, and 25% water was manufactured using the following general process: in a large amber pyrex bottle, 1) 19.98 g of PEG400 was added; 2) 40.07 g of Transcutol® HP was added; 3) 90 g of ethanol was added; 4) 50.03 g of water was added; and 5) the mixture was stirred using a magnetic stir bar for 30 mins at 800 rpm. • Aqueous Formulation 2, containing 10% propylene glycol, 20% Transcutol® HP, 45% ethanol, and 25% water was manufactured using the following process: in a large amber pyrex bottle, 1) 10.03 g propylene glycol was added; 2) 20.03 g Transcutol® HP was added; 3) 44.99 g ethanol was added; 4) 25.02 g water was added; and 5) the mixture was stirred using a magnetic stir bar for 30 mins at 800 rpm.
The solubilities of several compounds shown below in the described formulations are indicated below.
• Aqueous Formulation 1: 0.5 mg Reference Compound and 9.9996 g Aqueous Formulation 1 (0.005% w/w) were stirred at 600 RPM for 1 hour. The Reference Compound remained undissolved in 1 hour; • Aqueous Formulation 2: 0.5 mg Reference Compound and 10.0006 g Aqueous Formulation 2 (0.005% w/w) were stirred at 600 RPM for 1 hour. […]

Solubility in Non-Aqueous Formulation (dissolved / remained undissolved in 1 hour) [% w/w]	Solubility in Non-Aqueous Formulation (remained undissolved in 24 hours) [% w/w]	Solubility in Aqueous Formulation 1 (Aqueous Formulation 1 (10% PEG400, 20% Transcutol HP, 45% ethanol, 25% water), stirred at 600 RPM for 1 hour) [% w/w]	Compound
≥ 0.1	< 0.2		N#C/C(=C\c1cn(-c2cccc(C(F)(F)F)c2)c2ncccc12)C(=O)O [Compound 3, (E)-2-cyano-3-(1-(3-(trifluoromethyl)phenyl)-1H-pyrrolo[2,3-b]pyridin-3-yl)acrylic acid]
		< 0.005	N#C/C(=C\c1cn(Cc2cc(C(F)(F)F)cc(C(F)(F)F)c2)c2ncccc12)C(=O)O [Reference Compound, (E)-3-(1-(3,5-bis(trifluoromethyl)benzyl)-1H-pyrrolo[2,3-b]pyridin-3-yl)-2-cyanoacrylic acid, reference compound]
